Source: patent US20070072954A1, “Novel tetraoxaspiroalkanes and methods of use with organosilicon monomers in polyerizable compositions” (Curators of the University of Missouri, priority 2005, published 2007)
Marks after values point to notes of the source that are not given here.

Legend:
[1] = Photoreactivity assessment (photo DSC enthalpy of polymerization); format: physicochemical; conditions: for ΔHexp / Net Enthalpy ΔH / ΔHcalc: 3 wt % PI; for ΔH (experimental)/ΔH (calculated): calculated for an inert diluent; for Exotherm Peak Maximum / Net Enthalpy ΔH: TOSU monomers 20 mol % in SIL-MIX, SIL-MIX alone; for Net Enthalpy ΔH: experimental, 1 wt % CQ, 0.1 wt % ED, 400-500 nm, 10 min, 25° C., n=1
Excerpt: In this example, the photoreactivity of various combinations of SIL-MIX alone or SIL-MIX with 3,9-diethyl-3,9-bis(allyloxymethyl)-1,5,7,11-tetraoxaspiro[5.5]undecane (DEBAOM-1,5,7,11-TOSU) 1; 3,9-bis(3-trimethylsilylpropyl)-1,5,7,11-tetraoxaspiro[5.5]undecane (BTMSP-1,5,7,11-TOSU) 2; 3,9-bis(allyloxymethyl)-2,4,8,10-tetraoxaspiro[5.5]undecane (BAOM-2,4,8,10-TOSU) 3; 3,9-bis(2-trimethylsilylethyl)-[…] (BTMSE-2,4,8,10-TOSU) 4; 3,3-diethyl-11,12-epoxy-1,5,7,16-tetraoxadispiro[5.2.5.2]hexadecane (DECHE-1,5,7,11-TOSU) 5; and 3,9-diethyl-3,9-bis(3-trimethylsilylpropyloxymethyl)-1,5,7,11-tetraoxaspiro[5.5]-undecane (DEBTMSPOM-1,5,7,11-TOSU) 6 was investigated. The photoreactivity assessments (n=1) were made using an EXFO Novacure light curing unit interfaced with a Perkin-Elmer Diamond DSC. The experimental conditions were as follows: 25° C.; N2 atmosphere; 400-500 nm light; 3 mm quartz light guides; output: 500 mW/cm measured 15 mm from sample surface. The sample weights were 15-18 mg. Standard A1 pans were used. An empty pan was placed in the reference position. Irradiation time was for 10 minutes following a 1 minute equilibration. After the initial run, the sample was re-irradiated for an additional 10 minutes. This second curve was subtracted from the initial exotherm curve to zero out artifacts due to beginning and ending of irradiation, and to compensate for the heat capacity differences between the sample pan and empty reference pan. Integrations were from time t=1.1 (lamp shutter opened) min to 11.1 min (lamp shutter closed).
In this example, reaction mixtures containing 0 or 20 mol % of TOSU monomers 1, 2, 3, 4, and 5 in SIL-MIX were formulated with 4.1 wt % photoinitiator system (3 wt % PI; 1 wt % CQ; 0.1 wt % ED). Formulated mixtures were heated for 5 minutes on an oil bath at about 60° C. and stirred magnetically to aid dissolution of the photoinitiator system and inventive monomer. Formulations were prepared and stored away from ambient light. Mixtures were tested for photoreactivity the same day as prepared.
The effect of doubling the photoinitiator (PI) content from 3 wt % to 6 wt % was also determined for selected mixtures. As in Example 7(a) above, reaction mixtures (about 2 g) were formulated with 4.1 wt % photoinitiator system (3 wt % PI; 1 wt % CQ; 0.1 wt % ED) except where noted. Formulated mixtures were heated for 5 minutes on an oil bath @ 60° C. and stirred magnetically to dissolve the photoinitiator system and 6 (DEBTMSPOM-1,5,7,11-TOSU) when included. Formulations were prepared and stored away from ambient light and tested the same day as prepared.

[2] = Oxirane ring-opening (oxirane conversion) via FTIR; format: physicochemical; conditions: thin film, 10 min irradiation
Method: In this example, the oxirane ring-opening of monomers 1 (DEBAOM-1,5,7,11-TOSU) or 6 (DEBTMSPOM-1,5,7,11-TOSU) was investigated using FTIR. All FTIR spectra were acquired using a Perkin-Elmer BX II FTIR spectrophotometer. The identification of the location of the oxirane absorption band in the IR spectrum of Siloranes was achieved by methanolysis. A sample was dissolved in CH2Cl2 and exposed to CH30H in the presence of a catalytic amount of zinc tetrafluoroborate hydrate overnight. The mixture was evaporated onto a salt plate. An FTIR spectrum was acquired and compared to pre-exposure spectrum. There was a significant decrease in the oxirane absorption region at 882-886 cm^−1. This band was selected as the absorption to monitor for following the oxirane ring-opening reaction.
Analytical samples contained siloranes I, II, or SIL-MIX with and without 50 mol % of monomer 1 (DEBAOM-1,5,7,11-TOSU) or 6 (DEBTMSPOM-1,5,7,11-TOSU). A thin film was brushed onto a salt plate. Irradiation (10 minutes at 23 to 25° C. and R. H.=40-45%) was provided by a 3M XL2500 curing light positioned 1-cm above the sample surface. The light intensity was measured at 360 mW/cm^2 on the sample surface. The oxirane band absorption and an internal reference band absorption were assessed before and after irradiation. Oxirane conversion (alpha) was calculated according to equation (1) by Pan et al., Polym Int 2000, 49, 74. [formula] where subscripts 0 and t represent pre-irradiation and post-irradiation respectively.

[3] = Photopolymerization stress measurement (tensilometer); format: physicochemical; conditions: for Polymerization Stress: mean(std. dev.), n=3, TOSU monomers 20 mol % in SIL-MIX, BT and SIL-MIX alone
Method: In this example, the photopolymerization stress of the monomers of the present invention was investigated. Stress generated during photopolymerization was measured (n=3) using an electromagnetic mechanical testing machine (Enduratec Model 3200, Bose Corp., Minnetonka, Minn.) adapted to be a tensilometer. See Feilzer et al., Dent. Mater. […] Briefly, two identical glass rods, 5 mm in diameter, were placed opposing one another and separated by 1 mm (C-factor=2.5). A displacement transducer (LVDT, Enduratec, 0.1 μm resolution, range ±1 mm) was mounted on one glass rod and was touching a plate attached to the opposing glass rod. The distance between the mounts on the opposing glass rods was about 9 mm (including the 1 mm separation between the rods). Samples placed between the glass rods were cured by irradiation (500 mW/cm^2), while under LVDT displacement control. Load-displacement data were collected at 200 Hz for 30 mins. […] From the load-displacement data, peak loads were obtained and normalized by the original area to obtain the polymerization stresses.

[4] = Mechanical properties measurement (3-point bend tests); format: physicochemical; conditions: for Flexural elastic modulus / Work of Fracture / Flexural ultimate strength: 24-h, mean(std. dev.), n=6, BT and SIL-MIX alone; for Flexural ultimate strength: the values are: Ultimate (flexural) strength
Method: In this example, the elastic modulus, ultimate strength, and work of fracture were determined for the monomers of the present invention. […] The resin was injected into the mold and cured by irradiation (500 mW/cm^2) followed by storage in the dark for 4 hours and 24 hours before mechanical tests were conducted. Three point bending tests were conducted using an electromagnetic mechanical testing machine (Enduratec Model 3200) with a 20-mm span and at a crosshead displacement rate of 0.5mm/ min at room temperature (25° C.). Load-displacement data were collected at 100 Hz. […] Flexural ultimate strength was determined from the peak loads and work of fracture was determined from the area under the stress-strain curve.

[5] = 20 mol % in SIL-MIX, Dunnett's test p=0.05
[6] = TOSU monomers 20 mol % in SIL-MIX

ΔH (experimental)/ΔH (calculated) ([1]; 20 mol % in SIL-MIX)	Exotherm Peak Maximum [1]	Net Enthalpy ΔH [1]	Polymerization Stress [3]	Flexural elastic modulus [4, 6]	Work of Fracture [4, 6]	Flexural ultimate strength [4, 6]	elastic modulus values compared with the methacrylate control (BT) [4, 5]	SMILES	ultimate strength values compared with the methacrylate control (BT) [4, 5]	also measured
–	–	–	–	–	–	–	–	C[Si](CCC1CCC2OC2C1)(CCC1CCC2OC2C1)c1ccccc1 (centres unmarked) [PH-SIL, methylbis[2-(7-oxabicyclo[4.1.0]hept-3-yl)ethyl]phenylsilane, reference compound]	–	ΔHexp ([1]; 100% silorane): -208 J/g; Oxirane Conversion ([2]; silorane without comonomer): 31%
117%	15 s	−170^b J/g	1.20 (0.17)* N/mm^2	2.13 GPa	7.17 (1.58) kJ/m^2	87.8 MPa	significantly lower	C=CCOCC1OCC2(CO1)COC(COCC=C)OC2 (centres unmarked) [Monomer 3, 3,9-bis(allyloxymethyl)-2,4,8,10-tetraoxaspiro[5.5]undecane]	significantly lower	enthalpies above those calculated for addition of an inert diluent ([1]; 20 mol % in SIL-MIX): 17%
–	–	–	–	–	–	–	–	C[Si]1(CCC2CCC3OC3C2)O[Si](C)(CCC2CCC3OC3C2)O[Si](C)(CCC2CCC3OC3C2)O[Si](C)(CCC2CCC3OC3C2)O1 (centres unmarked) [TET-SIL, 2,4,6,8-tetramethyl-2,4,6,8-tetrakis-[2-(7-oxabicyclo[4.1.0]hept-3-yl)ethyl]-1,3,5,7-tetraoxa-2,4,6,8-tetrasilacyclooxtane, reference compound]	–	Oxirane Conversion ([2]; silorane without comonomer): 13%
80%	14 s	−116^b J/g	0.17 (0.06)* N/mm^2	2.2 GPa	5.82 (2.02) kJ/m^2	84.6 MPa	significantly lower	C=CCOCC1(CC)COC2(OC1)OCC(CC)(COCC=C)CO2 (centres unmarked) [Monomer 1, 3,9-diethyl-3,9-bis(allyloxymethyl)-1,5,7,11-tetraoxaspiro[5.5]undecane]	significantly lower	ΔHexp ([1]; 20 mol % in SIL-MIX): -124 J/g; ΔHexp ([1]; 50 mol % in PH-SIL): -78 J/g; ΔHcalc ([1]; calculated for inert diluent instead of TOSU at 20 mol %): -154 J/g; ΔHcalc ([1]; calculated for inert diluent instead of TOSU at 50 mol % in PH-SIL): -104 J/g; experimental ΔH as % of the calculated ΔH ([1]; 20% in SIL-MIX): 81%; experimental value as % of the calculated value (ΔH) ([1]; 50% in Ph-Sil): 75%; Oxirane Conversion ([2]; comonomer 50 mol % in PH-SIL (I)): 36%; Oxirane Conversion ([2]; comonomer 50 mol % in TET-SIL (II)): 27%
57%	16 s	−82^b J/g	0.33 (0.15)* N/mm^2	2.58 GPa	5.33 (1.09) kJ/m^2	96 MPa	–	CCC1(CC)COC2(OC1)OCC1(CCC3OC3C1)CO2 (centres unmarked) [Monomer 5, 3,3-diethyl-11,12-epoxy-1,5,7,16-tetraoxadispiro[5.2.5.2]hexadecane]	–	melting point: 67.4 °C

SMILES	ΔH (experimental)/ΔH (calculated) ([1]; 20 mol % in SIL-MIX)	Exotherm Peak Maximum [1]	Net Enthalpy ΔH [1]	Polymerization Stress [3]	Flexural elastic modulus [4, 6]	Work of Fracture [4, 6]	Flexural ultimate strength [4, 6]	elastic modulus values compared with the methacrylate control (BT) [4, 5]	ultimate strength values compared with the methacrylate control (BT) [4, 5]	also measured
C[Si](C)(C)CCC1OCC2(CO1)COC(CC[Si](C)(C)C)OC2 (centres unmarked) [Monomer 4, 3,9-bis(2-trimethylsilylethyl)-2,4,8,10-tetraoxaspiro[5.5]undecane]	117%	17 s	−170^b J/g	6.90 (1.76)* N/mm^2	2.36 GPa	5.63 (1.82) kJ/m^2	92.2 MPa	–	significantly lower	enthalpies above those calculated for addition of an inert diluent ([1]; 20 mol % in SIL-MIX): 17%; Photopolymerization stress reduced ([3]; 20 mol % in SIL-MIX): 40%
C[Si](C)(C)CCCC1COC2(OC1)OCC(CCC[Si](C)(C)C)CO2 (centres unmarked) [Monomer 2, 3,9-bis(3-trimethylsilylpropyl)-1,5,7,11-tetraoxaspiro[5.5]undecane]	54%	14 s	−78^b J/g	0.23 (0.06)* N/mm^2	1.9 GPa	1.12 (0.42)* kJ/m^2	42.4 MPa	significantly lower	significantly lower	work of fracture values compared with the methacrylate control (BT) [4, 5]: significantly lower; all mechanical properties, overall comparison (with BT control and among formulations) ([4]; TOSU monomers 20 mol % in SIL-MIX, SIL-MIX alone): lowest mechanical property values
